Test results reported in patent US10724055B2, “Methods for sustaining the viability of microorganisms during a cessation of syngas flow and processes for storage and reactivation of microorganisms” (Synata Bio, Inc., priority 2015, dated 2020).

Assays:
Experiment in all cases: Sustaining microorganisms with formate moiety during cessation of syngas feed, recovery on syngas resumption
Assay type in all cases: cell-based
[1] = tested on: Clostridium autoethanogenum
Experimental: (§1) A stirred, 10 liter, continuous fermenter is used under anaerobic bioconversion conditions with a feed gas comprising about 63.3 volume percent hydrogen; 20.5 volume percent carbon monoxide; 6.8 volume percent carbon dioxide; 8.2 volume percent methane and 1.2 volume percent nitrogen. During steady state operation, the gas feed is supplied at about 280 to 290 […] (measured at atmospheric pressure and 25° C.) and a media feed is provided at about 200 milliliters per hour. The media feed is an aqueous solution containing:
(§2) An aqueous solution of about 60 millimoles of sodium metabisulfite is separately added at a rate of 0.6 milliliters per hour. The fermenter is maintained at about 37° C. at a pH of about 5.0. The stirring rate is approximately 600 revolutions per minute.
In each example, the fermentation, using the microorganism specified in Table 1, is operated to achieve stable, steady-state conditions. The flow of syngas is then stopped. […] After a predetermined period, the addition of formate moiety is stopped, the nitrogen sweep gas is stopped and the syngas is resumed at a rate that matches the uptake capacity of the microbial population. The stirring is increased to about 600 rpm, and the flow rates of the media feed and metabisulfite feed are resumed to the levels existing prior to the cessation of the syngas feed.

Clostridium coskatii = conditions: no media or sulfur feed
Experimental: as §1, §2
(§3) In each example, the fermentation, using the microorganism specified in Table 1, is operated to achieve stable, steady-state conditions. The flow of syngas is then stopped. At the time of stoppage of syngas feed, the fermenter is operated in batch mode (no aqueous stream draw from the fermenter), nitrogen gas at about 15 milliliters per minute (atmospheric pressure and 25° C.) is fed to sweep the head space of the fermenter, and the stirring rate is reduced to about 100 rpm. After a predetermined period, the addition of formate moiety is stopped, the nitrogen sweep gas is stopped and the syngas is resumed at a rate that matches the uptake capacity of the microbial population. The stirring is increased to about 600 rpm, and the flow rates of the media feed and metabisulfite feed are resumed to the levels existing prior to the cessation of the syngas feed.

Clostridium radsdalei = conditions: Example 3; formate feed 5 mole % of electrons; outage 12 hrs; no media or sulfur feed
Experimental: as §1, §2, §3

[2] = tested on: Clostridium autoethanogenum; conditions: Example 2; formate feed 3.5 mole % of electrons; outage 6 hrs; media feed 10%; Na2S 20 mg/hr; argon sweep gas
[3] = Example 9, formate feed 10 mole % of electrons, outage 6 hrs, no media or sulfur feed
[4] = Example 10, formate feed 10 mole % of electrons, outage 24 hrs, no media or sulfur feed
[5] = Example 4, formate feed 3.5 mole % of electrons, outage 6 hrs
[6] = Example 5, formate feed 3.5 mole % of electrons, outage 24 hrs
[7] = Example 6, formate feed 15 mole % of electrons, outage 24 hrs
[8] = Example 1, formate feed 3.5 mole % of electrons prior to outage, syngas outage 6 hrs, media feed 10%, Na2S 20 mg/hr, nitrogen sweep
[9] = Example 8, formate feed 3.5 mole % of electrons, outage 6 hrs, no media or sulfur feed

O=CO [Formic acid]
Yes: CO uptake recovery [1, 3] | H2 uptake recovery [1, 3] | CO uptake recovery [1, 4] | H2 uptake recovery [1, 4]

N.O=CO [NH4^+ salt]
Yes: CO uptake recovery (Clostridium coskatii; [5]) | H2 uptake recovery (Clostridium coskatii; [5]) | CO uptake recovery (Clostridium coskatii; [6]) | H2 uptake recovery (Clostridium coskatii; [6]) | CO uptake recovery (Clostridium coskatii; [7]) | H2 uptake recovery (Clostridium coskatii; [7])

O=C[O-].[Na+] [Sodium salt]
Yes: CO uptake recovery [1, 8] | H2 uptake recovery [1, 8] | H2 uptake recovery ([1]; Example 2, formate feed 3.5 mole % of electrons, outage 6 hrs, media feed 10%, Na2S 20 mg/hr, argon sweep gas) | CO uptake recovery [1, 9] | H2 uptake recovery [1, 9] | CO uptake recovery (Clostridium radsdalei) | H2 uptake recovery (Clostridium radsdalei) | CO uptake recovery [2]
